Measured values as given in US20040197321A1, “Composition and method to prevent or reduce diarrhea and steatorrhea in HIV patients” (priority 2002, published 2004).
Entries after “also recorded” stand apart in the source; their conditions may differ. Counter-ions that a name gives are not always drawn. Like-named read-outs stand apart in the source and are kept apart here.

Legend:
[1] = target: T1, USP Reference Standard Pancrelipase (Sus scrofa, UniProt P00591); experiment: Lipase assay (USP titrimetric): inhibition of pancrelipase at pH 9.0; assay type: biochemical
T1 sequence (P00591 1-450): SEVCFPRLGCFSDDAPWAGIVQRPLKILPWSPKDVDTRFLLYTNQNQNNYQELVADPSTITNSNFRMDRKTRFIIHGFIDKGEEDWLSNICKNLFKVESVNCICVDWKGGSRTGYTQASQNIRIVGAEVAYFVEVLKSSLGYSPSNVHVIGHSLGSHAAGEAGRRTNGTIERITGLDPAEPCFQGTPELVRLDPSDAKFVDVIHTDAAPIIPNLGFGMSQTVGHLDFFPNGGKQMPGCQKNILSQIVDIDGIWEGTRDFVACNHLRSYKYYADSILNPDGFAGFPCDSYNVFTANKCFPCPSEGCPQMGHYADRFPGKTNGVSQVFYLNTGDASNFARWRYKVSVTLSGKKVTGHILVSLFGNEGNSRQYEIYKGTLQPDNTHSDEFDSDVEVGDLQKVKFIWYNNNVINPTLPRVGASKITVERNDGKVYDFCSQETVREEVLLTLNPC
Method: (§1) The enzyme sources consisted of USP Reference Standard Pancrelipase, USP Reference Standard Trypsin, colipase (Sigma Chemical Co.), and enterokinase (ICN Biochemicals). Appropriate concentrations of enzyme reference standard were prepared in cold distilled water, as described in USP reference assay procedures. The Infectious Disease Clinic in Somerville, N.J. provided the HAART medications. Pure drugs could not be obtained so commercial drug preparations were used in the assays. […] Appropriate concentrations of HAART drug, drug cocktails, and excipients were prepared in distilled water and reagent-grade methanol (Aldrich, Milwaukee, Wis.) or DMSO (Aldrich, Milwaukee, Wis.).
One unit (U) of lipase activity is defined as the amount of enzyme that liberates one μequivalent of free fatty acid from triglycerides per minute at pH 9.0 and 37° C. Lipase activity (U/mg) was determined by a lipase specific titrimetric assay described in the United States Pharmacopeia (USP), Volume XXII. In brief, the substrate consists of 10% olive oil in acacia solution, 40-mg/mL sodium taurocholate, 0.075M calcium chloride, 0.05M Tris in 3.0M NaCl buffer solution (pH 7.5) and distilled water. The emulsified substrate is incubated at 37° C. and brought to pH 9.0 with 0.02N NaOH. At time zero, 1.0 mL of enzyme solution was added. A pH stat autotitrator was used to maintain pH 9.0 and the volume of 0.02 N NaOH dispensed per unit time was recorded for five (5) minutes. From the initial slope of this plot, lipase activity was calculated using the following equation:
U/mg=slope (mL of NaOH dispensed/min)×N of NaOH×1000 /mg of enzyme assayed
HAART drug solutions were mixed with the substrate prior to incubation and addition of enzyme.

pancrelipase [2] = target: T2, pancrelipase (Sus scrofa, UniProt P00591); experiment: Pancrelipase reactivation by colipase; assay type: biochemical; details: for % Lipase Activity with Colipase: colipase 5 μg/mL
T2 construct: Sigma Chemical Co. (colipase)
T2 sequence (P00591 1-450): T1 sequence (P00591 1-450)
Method: Junge et al., described the procedure for the reactivation of lipase by colipase. In brief, the above lipase assay procedure was used with the following variation: colipase solution replaced the distilled water so the concentration of colipase in the final reaction mixture was 5 μg/mL.

[3] = target: T3, USP Reference Standard Trypsin (Bos taurus, UniProt P00760); experiment: Trypsin assay (spectrophotometric); assay type: biochemical; details: NRTI; drug 2.1*10^-4M (Drug Tested 44-141 μg/mL); trypsin 7.6 μg/mL; 25° C.
T3 sequence (P00760 24-246): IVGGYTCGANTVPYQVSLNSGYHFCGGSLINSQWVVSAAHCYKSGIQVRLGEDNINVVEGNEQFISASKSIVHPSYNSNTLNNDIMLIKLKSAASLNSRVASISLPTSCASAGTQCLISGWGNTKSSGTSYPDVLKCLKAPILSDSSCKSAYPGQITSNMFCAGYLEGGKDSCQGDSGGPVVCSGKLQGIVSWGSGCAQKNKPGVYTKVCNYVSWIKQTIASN
Method: as §1, with “Appropriate” for “The enzyme sources consisted of USP Reference Standard Pancrelipase, USP Reference Standard Trypsin, colipase (Sigma Chemical Co.), and enterokinase (ICN Biochemicals). Appropriate”

HIV patients = details: Kakuda et al. 1998; cited from earlier work
pancrelipase [4] = experiment: Recovery of pancrelipase activity after inhibition, by addition of excess lipase; assay type: biochemical
Method: The above procedure was used to monitor pancrelipase activity with the exception that drug was not preincubated with the substrate. At time zero 1.0 mL of pancrelipase was added to initiate the reaction. At five (5) minutes, 1.0 mL of HAART drug solution was added to the reaction mixture to cause inhibition of lipase activity. At twelve (12) minutes an additional 1.0 mL of pancrelipase was added to the reaction mixture to overcome HAART inhibition. The reaction was monitored for twenty (20) minutes.

[5] = pH 9.0, read-out: IC50 for inhibitors of pancrelipase (converted)

Which IC50 ([1]; IC50 for inhibitors of pancrelipase, pH 9.0) does the source give for `CC(C)(C)NC(=O)[C@@H]1C[C@@H]2CCCC[C@@H]2CN1C[C@@H](O)[C@H](Cc1ccccc1)NC(=O)[C@H](CC(N)=O)NC(=O)c1ccc2ccccc2n1` [FORTOVASE ®, Saquinavir] here?
Its IC50 is 3230 µM.

For `CCCCCCCCCCC[C@@H](C[C@@H]1OC(=O)[C@H]1CCCCCC)OC(=O)[C@H](CC(C)C)NC=O` [ORLISTAT, Orlistat, reference compound], which “effect of added colipase on the inhibition of pancrelipase (in words)” value (pancrelipase [2]) is on record?
Its value is “no effect”.

And the “% Lipase Activity No Colipase” value (pancrelipase [2]; Drug Conc. 0.002 mg/mL)?
The value was 37%.

And the “% Lipase Activity with Colipase” value (pancrelipase [2]; Drug Conc. 0.002 mg/mL)?
The value was 29%.

Which IC50 [1, 5] does the source give for `Cc1c(O)cccc1C(=O)N[C@@H](CSc1ccccc1)[C@H](O)CN1C[C@H]2CCCC[C@H]2C[C@H]1C(=O)NC(C)(C)C` [VIRACEPT ®, Nelfinavir mesylate] here?
The IC50 was 780 µM.

For `Nc1ccn([C@H]2CC[C@@H](CO)O2)c(=O)n1` [Zalcitabine USP Ref. STND, 2′,3′-Dideoxycytidine], which “Inhibition of Tryspin” value [3] is on record?
Its value is 0%.

For `Cc1c(O)cccc1C(=O)N[C@@H](CSc1ccccc1)[C@H](O)CN1C[C@H]2CCCC[C@H]2C[C@H]1C(=O)NC(C)(C)C` [nelfinavir, 2-[2′-hydroxy-3′-phenylthiomethyl-4′-aza-5′-oxo-5′-(2″-methyl-3″-hydroxyphenyl)pentyl]decahydroisoquinoline-3-N-t-butyl-carboxamide], which “HIV patients who experience diarrhea” value (HIV patients) is on record?
Its value is 12-20%.

With “D-α-tocopheryl polyethylene glycol 1000 succinate [TPGS]” as the compound, how does the “effect of added colipase on the inhibition of pancrelipase (in words)” value (pancrelipase [2]) read?
The value was “reversed; also recorded: restored pancrelipase activity”.

And the “% Lipase Activity No Colipase” value (pancrelipase [2]; Drug Conc. 10.0 mg/mL)?
The value was 21%.

What about the “% Lipase Activity with Colipase” value (pancrelipase [2]; Drug Conc. 10.0 mg/mL) of the same compound?
Its value is 79%.

What about the “effect of addition of excess lipase on the inhibition of pancrelipase (in words)” value (pancrelipase [4]) of the same compound?
The value was “can be overcome”.

And the “% Reactivation of Pancrelipase” value (pancrelipase [4]; after addition of excess lipase (additional 1.0 mL pancrelipase at 12 minutes))?
Its value is 98%.

And the “% Pancrelipase Activity” value (pancrelipase [4]; drug inhibited, before addition of excess lipase)?
Its value is 55%.

And the “inhibition of pancrelipase (in words)” value [1]?
The value was “significantly inhibited; also recorded: significant inhibition”.

And the “IC50 for inhibitors of pancrelipase” value ([1]; pH 9.0)?
The value was 275 µg/mL.

And the “% Inhibition of Pancrelipase” value ([1]; pH 9.0, Wt % Excipient in Source Used 0.2)?
Its value is 6%.

What about the “% Inhibition of Pancrelipase” value ([1]; pH 9.0, Wt % Excipient in Source Used 0.5) of the same compound?
The value was 43%.

And the “% Inhibition of Pancrelipase” value ([1]; pH 9.0, Wt % Excipient in Source Used 1)?
Its value is 79%.

And the “% Inhibition of Pancrelipase” value ([1]; pH 9.0, Wt % Excipient in Source Used 2)?
The value was 93%.

And the “% Inhibition of Pancrelipase” value ([1]; pH 9.0, Wt % Excipient in Source Used 4)?
The value was 95%.

And the “% Inhibition of Pancrelipase” value ([1]; pH 9.0, Wt % Excipient in Source Used 20)?
The value was 96%.

What about the IC50 [1, 5] of the same compound?
The IC50 was 182 µM.

For Vitamin E, which “% Inhibition of Pancrelipase” value ([1]; pH 9.0, Wt % Excipient in Source Used 50) is on record?
Its value is 20%.
